Source: paper PMC8584173, “The Cytotoxic Effect of Copper (II) Complexes with Halogenated 1,3-Disubstituted Arylthioureas on Cancer and Bacterial Cells” (International Journal of Molecular Sciences, 2021)

Columns and labels:
[1] = test system: hospital S. epidermidis (MRSE); assay: MIC, hospital S. epidermidis; format: cell-based, Staphylococcus epidermidis; settings: for times more effective than the reference chemotherapeutic (ciprofloxacin): S. epidermidis 424, 471, 511, 515 and 431–433 isolates
Protocol: (§1) The antimicrobial activity of the compounds was tested on Gram-positive bacteria (Staphylococcus aureus NCTC 4163, Staphylococcus aureus ATCC 25923, Staphylococcus aureus ATCC 6538, Staphylococcus aureus ATCC 29213, Staphylococcus epidermidis ATCC 12228, Staphylococcus epidermidis ATCC 35984), Gram-negative rods (Escherichia coli ATCC 10538, Escherichia coli ATCC 25922, Pseudomonas aeruginosa ATCC 15442, Pseudomonas aeruginosa ATCC 27863) and yeasts (Candida albicans ATCC 10231, Candida albicans ATCC 90028, Candida parapsilosis ATCC 22019). Hospital methicillin-resistant strains of Staphylococcus aureus and Staphylococcus epidermidis were obtained from the collection of the Department of Pharmaceutical Microbiology, Medical University of Warsaw, Poland.
(§2) Antifungal activities were assessed using Mueller–Hinton agar + 2% glucose and 0.5 µg/mL methylene blue dye medium. Sterile filter paper discs (9 mm diameter, Whatman Number 3 chromatography paper) were dripped with tested compound solutions (in dimethylsulfoxide, DMSO) to load 400 μg of a given compound per disc. Dry discs were placed on the surface of appropriate agar medium. The results (diameter of the growth inhibition zone) were read after 18 h of incubation at 35 °C. Minimal inhibitory concentration (MIC) was tested by the twofold serial microdilution method (in 96-well microtiter plates) using Mueller–Hinton broth medium (Beckton Dickinson) for bacteria or RPMI-1640 medium for Candida species, according to CLSI guidelines. The stock solution of tested agent was prepared in DMSO and diluted in sterile water. […] The final inoculum of all studied microorganisms was 10^5 CFU/ mL^−1 (colony forming units per ml). Minimal inhibitory concentrations (the lowest concentration of a tested agent that prevents visible growth of a microorganism) were read after 18 h (bacteria) or 24 h (yeasts) of incubation at 35 °C.

S. aureus ATCC 6538 = assay: MIC, twofold serial microdilution; format: cell-based, Staphylococcus aureus; settings: S. aureus ATCC 6538, 18 h, 35 °C
Protocol: as §1, §2

S. aureus ATCC 25923 = assay: MIC, twofold serial microdilution; format: cell-based, Staphylococcus aureus; settings: S. aureus ATCC 25923, 18 h, 35 °C
Protocol: as §1, §2

S. aureus NCTC 4163 = assay: MIC, twofold serial microdilution; format: cell-based, Staphylococcus aureus; settings: S. aureus NCTC 4163, 18 h, 35 °C
Protocol: as §1, §2

S. aureus ATCC 29213 = assay: MIC, twofold serial microdilution; format: cell-based, Staphylococcus aureus; settings: S. aureus ATCC 29213, 18 h, 35 °C
Protocol: as §1, §2

[2] = test system: HaCaT (human immortal keratinocyte cell line); assay: MTT cytotoxicity assay, HaCaT; format: cell-based; settings: HaCaT normal cells, 72 h
Protocol: (§3) The human primary (SW480), metastatic (SW620) colon cancer, metastatic prostate cancer (PC3) and human immortal keratinocyte (HaCaT) cell lines were purchased from the American Type Culture Collection (ATCC, Rockville, USA). The cells were cultured in medium according to protocols (MEM for SW480 and SW620, RPMI 1640 for PC3 and DMEM for HaCaT cells) supplemented with 10% fetal bovine serum (FBS), penicillin (100 U/mL) and streptomycin (100 μg/mL) and cultured in 37 °C/ 5% CO2 humidified incubator. The cells were cultured until appropriate confluence was achieved (80–90%). Next, they were harvested by treatment with 0.25% trypsin (Gibco Life Technologies, USA) and used for studies.
(§4) Cells without studied compounds in medium were used as a control.
(§5) The cell viability was assessed by determination of MTT salt (3-(4,5-dimethylthiazol-2-yl)-2,5-diphenyltetrazolium bromide) conversion by mitochondrial dehydrogenase. MTT assay was performed as previously described. Experiments were repeated three times. Cell viability was presented as a percentage of MTT reduction in the treated cells versus the control cells. Number of viable cells cultured without studied compounds was assumed to be 100%. Decreased relative MTT level means decreased cell viability. Thiourea complexes with the highest cytotoxic potential assessed by MTT determination (with the lowest IC50) were chosen for subsequent assessments of cytotoxicity mechanisms.

[3] = test system: Bacillus subtilis M45 (rec−); assay: Bacillus subtilis rec-assay, M45; format: cell-based; settings: B. subtilis M45; 256 µg per disc (NOQ 2 µg per disc)
Protocol: DNA-damaging activity of compounds was tested by rec-assay using two genetically modified Bacillus subtilis strains: M45 (rec^−) and H17 (rec^+). Tested compounds were dissolved in DMSO, and 10 µL of each solution was dripped onto sterile cotton discs (Rotilabo) to load 256 µg of a given compound per 9 mm disc. Discs were placed on the surface nutrient agar plates (Difco), inoculated with 100 µL of bacterial overnight culture and incubated […] at 35 °C. After incubation, the growth inhibition zones were measured. […] Results of the genotoxicity test were estimated after 18 h of incubation at 35 °C by comparing the diameter of the inhibition zone on the B. subtilis M45 (rec^−) strain with that on the B. subtilis H17 (rec^+) strain.

E. coli NCTC 10538 = assay: MIC, twofold serial microdilution; format: cell-based, Escherichia coli; settings: E. coli NCTC 10538, 18 h, 35 °C
Protocol: as §1, §2

E. coli ATCC 25922 = assay: MIC, twofold serial microdilution; format: cell-based, Escherichia coli; settings: E. coli ATCC 25922, 18 h, 35 °C
Protocol: as §1, §2

[4] = test system: SW620 (human metastatic colon cancer); assay: MTT cytotoxicity assay, SW620; format: cell-based; settings: SW620, 72 h
Protocol: as §3, §4
as §5, with “viability.” for “viability. Thiourea complexes with the highest cytotoxic potential assessed by MTT determination (with the lowest IC50) were chosen for subsequent assessments of cytotoxicity mechanisms.”

S. aureus 495 = assay: MIC, hospital MRSA strain; format: cell-based, Staphylococcus aureus; settings: hospital MRSA S. aureus 495
Protocol: as §1, §2

S. aureus 572 = assay: MIC, hospital MRSA strain; format: cell-based, Staphylococcus aureus; settings: for MIC: hospital MRSA S. aureus 572; for times more active than ciprofloxacin: S. aureus 572
Protocol: as §1, §2

S. aureus 537 = assay: MIC, hospital MRSA strain; format: cell-based, Staphylococcus aureus; settings: hospital MRSA S. aureus 537
Protocol: as §1, §2

S. aureus 586 = assay: MIC, hospital MRSA strain; format: cell-based, Staphylococcus aureus; settings: hospital MRSA S. aureus 586
Protocol: as §1, §2

S. aureus 497 = assay: MIC, hospital MRSA strain; format: cell-based, Staphylococcus aureus; settings: hospital MRSA S. aureus 497
Protocol: as §1, §2

S. aureus 567 = assay: MIC, hospital MRSA strain; format: cell-based, Staphylococcus aureus; settings: hospital MRSA S. aureus 567
Protocol: as §1, §2

Row | SMILES | times more effective than the reference chemotherapeutic (ciprofloxacin) [1] | MIC (S. aureus ATCC 6538) | MIC (S. aureus ATCC 25923) | MIC (S. aureus NCTC 4163) | MIC (S. aureus ATCC 29213) | IC50 [2] | inhibition zone diameter [3] | MIC (E. coli NCTC 10538) | MIC (E. coli ATCC 25922) | IC50 [4] | MIC (S. aureus 495) | MIC (S. aureus 572) | MIC (S. aureus 537) | MIC (S. aureus 586) | MIC (S. aureus 497) | MIC (S. aureus 567) | MIC ([1]; most of hospital S. epidermidis species) | times more active than ciprofloxacin (S. aureus 572)
1 | O=[N+]([O-])c1cc([N+]2=C(Nc3ccccc3Br)[S][Cu-2]23[S]C(Nc2ccccc2Br)=[N+]3c2ccc(Cl)c([N+](=O)[O-])c2)ccc1Cl [Compound 1, Copper (II) complex with 1-(2-bromophenyl)-3-(4-chloro-3-nitrophenyl)thiourea] | 2–16 times | 8 µg/mL | 8 µg/mL | 8 µg/mL | 8 µg/mL | 110 ± 3.4 µM | 12 mm | 128 µg/mL | 256 µg/mL | 3.3 ± 0.2 µM | 8 µg/mL | 8 µg/mL | 8 µg/mL | 4 µg/mL | 8 µg/mL | 8 µg/mL |  | 
2 | O=[N+]([O-])c1cc([N+]2=C(Nc3cccc(Br)c3)[S][Cu-2]23[S]C(Nc2cccc(Br)c2)=[N+]3c2ccc(Cl)c([N+](=O)[O-])c2)ccc1Cl [Compound 2, Copper (II) complex with 1-(3-bromophenyl)-3-(4-chloro-3-nitrophenyl)thiourea] | 2–16 times | 16 µg/mL | 16 µg/mL | 16 µg/mL | 16 µg/mL | 167 ± 2.3 µM | 19 mm | 128 µg/mL | 128 µg/mL | 22.3 ± 1.8 µM | 8 µg/mL | 8 µg/mL | 8 µg/mL | 8 µg/mL | 8 µg/mL | 8 µg/mL |  | 
3 | O=[N+]([O-])c1cc([N+]2=C(Nc3ccc(Br)cc3)[S][Cu-2]23[S]C(Nc2ccc(Br)cc2)=[N+]3c2ccc(Cl)c([N+](=O)[O-])c2)ccc1Cl [Compound 3, Copper (II) complex with 1-(4-bromophenyl)-3-(4-chloro-3-nitrophenyl)thiourea] |  | 8 µg/mL | 8 µg/mL | 8 µg/mL | 16 µg/mL | 103 ± 3.2 µM | 15 mm | 128 µg/mL | >256 µg/mL | 19.2 ± 2.3 µM | 4 µg/mL | 4 µg/mL | 4 µg/mL | 4 µg/mL | 4 µg/mL | 4 µg/mL | 4 to 8 µg/mL | 64 times
4 | O=[N+]([O-])c1cc([N+]2=C(Nc3ccc(F)c(Cl)c3)[S][Cu-2]23[S]C(Nc2ccc(F)c(Cl)c2)=[N+]3c2ccc(Cl)c([N+](=O)[O-])c2)ccc1Cl [Compound 4, Copper (II) complex with 1-(3-chloro-4-fluorophenyl)-3-(4-chloro-3-nitrophenyl)thiourea] | 2–16 times | 4 µg/mL | 4 µg/mL | 4 µg/mL | 4 µg/mL | 121 ± 5.2 µM | 18 mm | 128 µg/mL | 128 µg/mL | 21.6 ± 2.9 µM | 4 µg/mL | 4 µg/mL | 4 µg/mL | 4 µg/mL | 8 µg/mL | 4 µg/mL |  | 64 times
5 | O=[N+]([O-])c1cc([N+]2=C(Nc3ccc(Cl)c(Cl)c3)[S][Cu-2]23[S]C(Nc2ccc(Cl)c(Cl)c2)=[N+]3c2ccc(Cl)c([N+](=O)[O-])c2)ccc1Cl [Compound 5, Copper (II) complex with 1-(4-chloro-3-nitrophenyl)-3-(3,4-dichlorophenyl)thiourea] |  | 32 µg/mL | 32 µg/mL | 32 µg/mL | 32 µg/mL | 165 ± 4.7 µM | 18 mm | 128 µg/mL | 128 µg/mL | 10.8 ± 2.6 µM | 16 µg/mL | 16 µg/mL | 16 µg/mL | 16 µg/mL | 16 µg/mL | 16 µg/mL |  | 
6 | O=[N+]([O-])c1cc(NC2=[N+](c3ccc(Cl)c([N+](=O)[O-])c3)[Cu-2]3([S]2)[S]C(Nc2ccc(Cl)c([N+](=O)[O-])c2)=[N+]3c2ccc(Cl)c([N+](=O)[O-])c2)ccc1Cl [Compound 6, Copper (II) complex with 1,3-bis(4-chloro-3-nitrophenyl)thiourea] |  | 8 µg/mL | 8 µg/mL | 8 µg/mL | 8 µg/mL | 123 ± 2.1 µM | 15 mm | 128 µg/mL | 128 µg/mL | 21.5 ± 1.4 µM | 32 µg/mL | 32 µg/mL | 32 µg/mL | 32 µg/mL | 32 µg/mL | 32 µg/mL |  | 
7 | O=[N+]([O-])c1cc([N+]2=C(Nc3ccccc3F)[S][Cu-2]23[S]C(Nc2ccccc2F)=[N+]3c2ccc(Cl)c([N+](=O)[O-])c2)ccc1Cl [Compound 7, Copper (II) complex with 1-(2-fluorophenyl)-3-(4-chloro-3-nitrophenyl)thiourea] | 2–16 times | 32 µg/mL | 32 µg/mL | 32 µg/mL | 32 µg/mL | 138 ± 4.4 µM | 18 mm | 128 µg/mL | 256 µg/mL | 9.1 ± 0.8 µM | 8 µg/mL | 4 µg/mL | 8 µg/mL | 8 µg/mL | 8 µg/mL | 4 µg/mL |  | 64 times
